Peptide text beside a SMILES is read from it. * marks the point of attachment. FITC = O=C1OC2(c3ccc(O)cc3Oc3cc(O)ccc32)c2ccc(NC(=S)*)cc21; Ahx = NCCCCCC(=O)O
Experiments:
[1] = test system: Jurkat cells; assay: Cellular uptake kinetics assay (Michaelis-Menton); type: cell-based, human; settings: for Vmax: Jurkat cells, 30, 60, 120, 240 seconds; for Km values, fold greater than that found for Tat49-57: discussion; for rate of cell entry, fold faster than Tat47-59: from Km values
Procedure: Cellular Uptake Kinetics Assay. […] The reactions were quenched by diluting the samples into 2% FCS/PBS (5 mL). The assays were then worked up and analyzed by fluorescent flow cytometry as previously described.

[2] = test system: Jurkat cells; assay: FACS cellular uptake assay of fluorescently labeled peptides and peptoids; type: cell-based, human; settings: for additional loss of intracellular fluorescence from the one amino acid truncated analogs / loss of intracellular fluorescence compared to the parent sequence (Tat49-57): 15 min at 23° C.; for cellular uptake compared with Tat49-57: 23° C., 2% FCS
Procedure: Cellular Uptake Assay. […] The accuracy of this method for determining concentration was established by weighing selected samples and dissolving them in a known amount of PBS buffer. The concentrations determined by UV spectroscopy correlated with the amounts weighed out manually. Jurkat cells (human T cell line), murine B cells (CH27), or human PBL cells were grown in 10% fetal calf serum and DMEM and each of these were used for cellular uptake experiments. […] The microtiter plates were centrifuged and the cells were isolated, washed with cold PBS (3×250 μL), incubated with 0.05% trypsin/0.53 mM EDTA at 37° C. for 5 min, washed with cold PBS, and resuspended in PBS containing 0.1% propidium iodide. The cells were analyzed using fluorescent flow cytometry (FACScan, Becton Dickinson) and cells staining with propidium iodide were excluded from the analysis. The data presented is the mean fluorescent signal for the 5000 cells collected.
Inhibition of Cellular Uptake with Sodium Azide. The assays were performed as previously described with the exception that the cells used were preincubated for 30 min with 0.5% sodium azide in 2% FCS/PBS buffer prior to the addition of fluorescent peptides and the cells were washed with 0.5% sodium azide in PBS buffer. All of the cellular uptake assays were run in parallel in the presence and absence of sodium azide.
To determine the structural requirements for the cellular uptake of short arginine-rich peptides, a series of fluorescently-labeled truncated analogues of Tat49-57 were synthesized using standard solid-phase chemistry. See, e.g., Atherton, E.et al. SOLID-PHASE PEPTIDE […] (IRL: Oxford, Engl. 1989). A fluorescein moiety was attached via an aminohexanoic acid spacer on the amino termini. The ability of these fluorescently labeled peptides to enter Jurkat cells was then analyzed using fluorescent activated cell sorting (FACS) ( ). The peptide constructs tested were Tat49-57 (Fl-ahx-[…]): Tat49-56 (Fl-ahx-[…]), Tat49-55 (Fl-ahx-RKKRRQR), Tat50-57 (Fl-ahx-[…]), and […] (Fl-ahx-KRRQRRR). Differentiation between cell surface binding and internalization was accomplished throughout by running a parallel set of assays in the presence and absence of sodium azide. Because sodium azide inhibits energy-dependent cellular uptake but not cell surface binding, the difference in fluorescence between the two assays provided the amount of fluorescence resulting from internalization.

[3] = test system: skin of nude mice; assay: Penetration of taxol-biotinylated D-arginine conjugates into skin of nude mice; type: in vivo; settings: back of nude mice, 1 mM-100 μM in PBS, 30, 60, 120 minutes
Procedure: Slides were analyzed by fluorescent microscopy.

N=C(N)NCCC[C@@H](NC(=O)[C@@H](CCCNC(=N)N)NC(=O)[C@@H](CCCNC(=N)N)NC(=O)[C@@H](CCCNC(=N)N)NC(=O)[C@@H](CCCNC(=N)N)NC(=O)[C@@H](CCCNC(=N)N)NC(=O)[C@@H](CCCNC(=N)N)NC(=O)[C@@H](CCCNC(=N)N)NC(=O)[C@@H](CCCNC(=N)N)NC(=O)CCCCCNC(=S)Nc1ccc2c(c1)C(=O)OC21c2ccc(O)cc2Oc2cc(O)ccc21)C(N)=O (single isomer, unassigned) [R9]
Vmax [1]: 0.38 | Km values, fold greater than that found for Tat49-57 [1]: 30 fold | Km values, fold greater than that found for Tat49-57 ([1]; listed as r9): 100 fold | rate of cell entry, fold faster than Tat47-59 [1]: ~20 fold | cellular uptake of peptoids compared with d-arginine oligomers / other peptoids ([2]; 4 min at 23° C.): comparable to N-btg9 | relative order of uptake ([2]; 4 min at 23° C.): N-hxg9 (6 methylene)>N-btg9 (4 methylene)>r9 (3 methylene)>N-arg9 (3 methylene)>N-etg9 (2 methylene)

C[C@H](NC(=O)[C@H](CCCNC(=N)N)NC(=O)[C@H](CCCNC(=N)N)NC(=O)[C@H](CCCCN)NC(=O)[C@H](CCCCN)NC(=O)[C@H](CCCNC(=N)N)NC(=O)CCCCCNC(=S)Nc1ccc2c(c1)C(=O)OC21c2ccc(O)cc2Oc2cc(O)ccc21)C(=O)N[C@@H](CCCNC(=N)N)C(=O)N[C@@H](CCCNC(=N)N)C(=O)N[C@@H](CCCNC(=N)N)C(N)=O [A-54] ({FITC-Ahx}-RKKRRARRR-NH2)
loss of cellular uptake on alanine substitution of Tat49-57 ([2]; 12 min at 23° C.): modest decrease

CC[C@H](C)[C@H](NC(=O)[C@H](CCCCN)NC(=O)[C@@H](NC(=O)[C@H](CCC(N)=O)NC(=O)[C@H](CCCNC(=N)N)NC(=O)CCCCCNC(=S)Nc1ccc2c(c1)C(=O)OC21c2ccc(O)cc2Oc2cc(O)ccc21)[C@@H](C)CC)C(=O)N[C@@H](Cc1c[nH]c2ccccc12)C(=O)N[C@@H](Cc1ccccc1)C(=O)N[C@@H](CCC(N)=O)C(=O)N[C@@H](CC(N)=O)C(=O)N[C@@H](CCCNC(=N)N)C(=O)N[C@@H](CCCNC(=N)N)C(=O)N[C@@H](CCSC)C(=O)N[C@@H](CCCCN)C(=O)N[C@@H](Cc1c[nH]c2ccccc12)C(=O)N[C@@H](CCCCN)C(=O)N[C@@H](CCCCN)C(N)=O [Antennapedia43-58, reference compound]
Vmax [1]: 0.41 | rate of cell entry, fold faster than Tat47-59 [1]: approximately 2 fold

CC(=O)O[C@H]1C(=O)[C@@]2(C)[C@H]([C@H](OC(=O)c3ccccc3)[C@]3(O)C[C@H](OC(=O)[C@H](OC(=O)NCCCC[C@H](NC(=O)[C@@H](CCCNC(=N)N)NC(=O)[C@@H](CCCNC(=N)N)NC(=O)[C@@H](CCCNC(=N)N)NC(=O)[C@@H](CCCNC(=N)N)NC(=O)[C@@H](CCCNC(=N)N)NC(=O)CCCCCNC(=O)CCCC[C@@H]4SC[C@@H]5NC(=O)N[C@@H]54)C(N)=O)[C@@H](NC(=O)c4ccccc4)c4ccccc4)C(C)=C1C3(C)C)[C@]1(OC(C)=O)CO[C@@H]1C[C@@H]2O [B-aca-r5-K-taxol]
penetration into skin (fluorescent streptavidin staining) [3]: very little uptake

CC(=O)O[C@H]1C(=O)[C@@]2(C)[C@H]([C@H](OC(=O)c3ccccc3)[C@]3(O)C[C@H](OC(=O)[C@H](OC(=O)NCCCC[C@H](NC(=O)[C@@H](CCCNC(=N)N)NC(=O)[C@@H](CCCNC(=N)N)NC(=O)[C@@H](CCCNC(=N)N)NC(=O)[C@@H](CCCNC(=N)N)NC(=O)[C@@H](CCCNC(=N)N)NC(=O)[C@@H](CCCNC(=N)N)NC(=O)[C@@H](CCCNC(=N)N)NC(=O)CCCCCNC(=O)CCCC[C@@H]4SC[C@@H]5NC(=O)N[C@@H]54)C(N)=O)[C@@H](NC(=O)c4ccccc4)c4ccccc4)C(C)=C1C3(C)C)[C@]1(OC(C)=O)CO[C@@H]1C[C@@H]2O [B-aca-r7-K-taxol]
penetration into skin (fluorescent streptavidin staining) [3]: effectively entered into and across the epidermis and into the dermis

CC(=O)O[C@H]1C(=O)[C@@]2(C)[C@H]([C@H](OC(=O)c3ccccc3)[C@]3(O)C[C@H](OC(=O)[C@H](OC(=O)NCCCC[C@H](NC(=O)[C@@H](CCCNC(=N)N)NC(=O)[C@@H](CCCNC(=N)N)NC(=O)[C@@H](CCCNC(=N)N)NC(=O)[C@@H](CCCNC(=N)N)NC(=O)[C@@H](CCCNC(=N)N)NC(=O)[C@@H](CCCNC(=N)N)NC(=O)[C@@H](CCCNC(=N)N)NC(=O)[C@@H](CCCNC(=N)N)NC(=O)[C@@H](CCCNC(=N)N)NC(=O)CCCCCNC(=O)CCCC[C@@H]4SC[C@@H]5NC(=O)N[C@@H]54)C(N)=O)[C@@H](NC(=O)c4ccccc4)c4ccccc4)C(C)=C1C3(C)C)[C@]1(OC(C)=O)CO[C@@H]1C[C@@H]2O [B-aca-r9-K-taxol]
penetration into skin (fluorescent streptavidin staining) [3]: effectively entered into and across the epidermis and into the dermis

N=C(N)NCCC[C@H](NC(=O)[C@H](CCC(N)=O)NC(=O)[C@H](CCCNC(=N)N)NC(=O)[C@H](CCCNC(=N)N)NC(=O)[C@H](CCCCN)NC(=O)[C@H](CCCCN)NC(=O)[C@H](CCCNC(=N)N)NC(=O)CCCCCNC(=S)Nc1ccc2c(c1)C(=O)OC21c2ccc(O)cc2Oc2cc(O)ccc21)C(N)=O [Tat49-55, Fl-ahx-RKKRRQR] ({FITC-Ahx}-RKKRRQR-NH2)
additional loss of intracellular fluorescence from the one amino acid truncated analogs [2]: 60%

N=C(N)NCCC[C@H](NC(=O)[C@H](CCCNC(=N)N)NC(=O)[C@H](CCC(N)=O)NC(=O)[C@H](CCCNC(=N)N)NC(=O)[C@H](CCCNC(=N)N)NC(=O)[C@H](CCCCN)NC(=O)[C@H](CCCCN)NC(=O)[C@H](CCCNC(=N)N)NC(=O)CCCCCNC(=S)Nc1ccc2c(c1)C(=O)OC21c2ccc(O)cc2Oc2cc(O)ccc21)C(N)=O [Tat49-56] ({FITC-Ahx}-RKKRRQRR-NH2)
loss of intracellular fluorescence compared to the parent sequence (Tat49-57) [2]: 80%

N=C(N)NCCC[C@H](NC(=O)[C@H](CCCNC(=N)N)NC(=O)[C@H](CCCNC(=N)N)NC(=O)[C@H](CCC(N)=O)NC(=O)[C@H](CCCNC(=N)N)NC(=O)[C@H](CCCNC(=N)N)NC(=O)[C@H](CCCCN)NC(=O)[C@H](CCCCN)NC(=O)[C@H](CCCNC(=N)N)NC(=O)CCCCCNC(=S)Nc1ccc2c(c1)C(=O)OC21c2ccc(O)cc2Oc2cc(O)ccc21)C(N)=O [Tat49-57, reference compound]
Vmax [1]: 0.38 | cellular uptake compared with Tat49-57 [2]: between that of R6 and R7

N=C(N)NCCC[C@H](NC(=O)[C@H](CCCNC(=N)N)NC(=O)[C@H](CCCNC(=N)N)NC(=O)[C@H](CCC(N)=O)NC(=O)[C@H](CCCNC(=N)N)NC(=O)[C@H](CCCNC(=N)N)NC(=O)[C@H](CCCCN)NC(=O)[C@H](CCCCN)NC(=O)CCCCCNC(=S)Nc1ccc2c(c1)C(=O)OC21c2ccc(O)cc2Oc2cc(O)ccc21)C(N)=O [Tat50-57] ({FITC-Ahx}-KKRRQRRR-NH2)
loss of intracellular fluorescence compared to the parent sequence (Tat49-57) [2]: 80%

N=C(N)NCCC[C@H](NC(=O)[C@H](CCCNC(=N)N)NC(=O)[C@H](CCCNC(=N)N)NC(=O)[C@H](CCC(N)=O)NC(=O)[C@H](CCCNC(=N)N)NC(=O)[C@H](CCCNC(=N)N)NC(=O)[C@H](CCCCN)NC(=O)CCCCCNC(=S)Nc1ccc2c(c1)C(=O)OC21c2ccc(O)cc2Oc2cc(O)ccc21)C(N)=O [Tat51-57, Fl-ahx-KRRQRRR] ({FITC-Ahx}-KRRQRRR-NH2)
additional loss of intracellular fluorescence from the one amino acid truncated analogs [2]: did not further diminish the amount of internalization

N=C(N)NCCC[C@H](NC(=O)[C@H](CCCCN)NC(=O)[C@H](CCCCN)NC(=O)[C@H](CCCNC(=N)N)NC(=O)[C@H](CCCNC(=N)N)NC(=O)[C@H](CCC(N)=O)NC(=O)[C@H](CCCNC(=N)N)NC(=O)[C@H](CCCNC(=N)N)NC(=O)[C@H](CCCNC(=N)N)NC(=O)CCCCCNC(=S)Nc1ccc2c(c1)C(=O)OC21c2ccc(O)cc2Oc2cc(O)ccc21)C(N)=O [Tat57-49]
cellular uptake compared with Tat49-57 [2]: more effective at entering Jurkat cells then Tat49-57

N=C(N)NCCC[C@@H](NC(=O)[C@@H](CCCNC(=N)N)NC(=O)[C@@H](CCCNC(=N)N)NC(=O)[C@@H](CCC(N)=O)NC(=O)[C@@H](CCCNC(=N)N)NC(=O)[C@@H](CCCNC(=N)N)NC(=O)[C@@H](CCCCN)NC(=O)[C@@H](CCCCN)NC(=O)[C@@H](CCCNC(=N)N)NC(=O)CCCCCNC(=S)Nc1ccc2c(c1)C(=O)OC21c2ccc(O)cc2Oc2cc(O)ccc21)C(N)=O [d-Tat49-57, Fl-ahx-rkkrrqrrr]
cellular uptake compared with Tat49-57 [2]: more effective at entering Jurkat cells then Tat49-57

N=C(N)NCCC[C@@H](NC(=O)[C@@H](CCCCN)NC(=O)[C@@H](CCCCN)NC(=O)[C@@H](CCCNC(=N)N)NC(=O)[C@@H](CCCNC(=N)N)NC(=O)[C@@H](CCC(N)=O)NC(=O)[C@@H](CCCNC(=N)N)NC(=O)[C@@H](CCCNC(=N)N)NC(=O)[C@@H](CCCNC(=N)N)NC(=O)CCCCCNC(=S)Nc1ccc2c(c1)C(=O)OC21c2ccc(O)cc2Oc2cc(O)ccc21)C(N)=O [d-Tat57-49, Fl-ahx-rrrqrrkkr]
cellular uptake compared with Tat49-57 [2]: more effective at entering Jurkat cells then Tat49-57
